Experimental data reported in patent US20190269801A1 (CEDARS-SINAI MEDICAL CENTER, priority 2016, published 2019).
Like-named read-outs stand apart in the source and are kept apart here. Values belong to the molecule of their own block, whether it stands above or below them.

Key:
[1] = tested on: ex vivo expanded CTCs from PC patients and LNCaP and C4-2B cells from mouse bone marrow, 3-D spheroids; assay: Viability/apoptosis of PC CTCs and bone marrow-derived LNCaP and C4-2B grown as 3-D spheroids; format: cell-based, human
Procedure: (§1) Immortalized PC cell lines (PC3, LNCaP, C4-2, C4-2B, 22Rv1) and 3-D spheroid growth of mouse bone marrow-derived LNCaP and C4-2B and ex vivo expanded CTCs from patients were used. […] Induction of apoptosis was assessed by caspase 3/7 luminescent assay. Growth inhibitory effects were compared between 2-D and 3-D. Senescent luciferase-tagged LNCaP and C4-2B cells from mouse bone marrow regained growth potential when propagated in vitro as 3D spheroids. RPMI medium supplemented with 10% FBS and 1% penicillin/streptomycin was used to grow CTCs in vitro.

[2] = tested on: PC cell lines (PC3, LNCaP, C4-2, C4-2B, 22Rv1); assay: Viability of immortalized prostate cancer cell lines grown as 2D monolayers; format: cell-based, human; settings: 72 hours of drug exposure
Procedure: as §1

[3] = tested on: Naive C4-2B PC cells; assay: Growth inhibition of naive C4-2B PC cells cultured as 2D monolayer; settings: for IC50: Homo sapiens
[4] = tested on: Resistant C4-2B PC cells; assay: Growth inhibition of AA/EZ resistant C4-2B PC cells cultured as 2D monolayer; format: cell-based; settings: Homo sapiens
[5] = tested on: microtubule; assay: Microtubule dynamics in PC cells; format: cell-based
Procedure: Microtubule dynamics are measured in NIR-SM or SM treated PC cells in the presence or absence of DT according to published protocols. Microtubule dynamics are assessed by fluorescence imaging methods, where immunolabeled tubulin is the readout for measurements of polarized forced generation, contractility and response to substrate stiffness measured in the presence of DT using established protocols. […] We test other agents, such as nocodazole and vincristine, which without being bound by theory we hypothesize block the polymerization of tubulin into microtubules, and cold temperature that can cause a rapid depolymerization of microtubules. With these controls, we determine if NIR-SM or SM may differ in enhancing the activity of DT in promoting microtubule polymerization in PC cells.

[6] = tested on: renal (ACHN, o-786, SKRC, Caki-1), breast (MCF-7), lung (H358), liver (HepG2), prostate (PC3, LNCaP, C4-2B), pancreatic (MIAPaCa II) and glioblastoma (U87) …; assay: Cell inhibition by NIR-783 dye in a cancer cell line panel; format: cell-based; settings: in vitro
[7] = tested on: PC3 tumor xenograft; settings: PC3 tumors in mouse; listed as dye-simvastatin
[8] = tested on: PDAC tumors; settings: imaged 3 days after i.p. administration
[9] = tested on: Ramos, a B-cell lymphoma, 3-D spheroids; assay: Cytotoxicity in Ramos B-cell lymphoma 3-D spheroids; format: cell-based
[10] = tested on: C4-2B cells
[11] = tested on: Prostate circulating tumor cells CTC 864; settings: 4 μM, 24 hours; vs control, docetaxel 1.25 μM, abiraterone acetate 3.125 μM
[12] = tested on: PC cells, 3D spheroids vs 2D monolayer; settings: average
[13] = tested on: pancreatic and breast cancer CTCs; settings: 3-D spheroids
[14] = tested on: ex vivo propagated CTCs from human PC patients (3D spheroids); assay: Cytotoxicity in ex vivo propagated prostate cancer CTCs grown as 3D spheroids
[15] = tested on: ovarian tumor cells OV90 and OVCA433; settings: in vitro
[16] = tested on: human PC cell lines; assay: IC50 in commonly used human PC cell lines; format: cell-based
[17] = tested on: ex vivo propagated CTCs from human PC patients (3D spheroids)
[18] = tested on: RCC cell lines Caki-1, o-786, ACHN and SK-RC; assay: Growth and viability of RCC cell lines, 72 h exposure (crystal violet); format: cell-based, human; settings: range over all RCC cell lines tested
Procedure: (§2) 5,000 cells/well renal cancer cells and 10,000 cells/well lymphoma cells are seeded in 96 well plates in 100 microliter medium/per well for 24 h. […] Renal cancer cells are fixed with 3.7% paraformaldehyde for 15 minutes and are stained with Crystal violet solution (0.5% in 25% methanol) for 30 minutes. After rinsing with water cell layers are dried and decolorized with Sorenson citrate with shaking for 20 minutes. […] Lymphoma cell growth was evaluated using MTT and cells are incubated for 4 hours.
Apoptosis was assessed by caspase 3/7 luminescent assay. Cleavage of apoptosis substrates was determined by western blotting. […] Formalin-fixed tumor, liver and kidney sections were stained with H&E and kidney sections were scored semiquantitativey.

[19] = tested on: Namalwa and Raji cell lines; assay: Apoptosis by caspase 3/7 luminescent assay and western blot in BL cell lines; format: cell-based, human; settings: 24 hours of drug exposure, 8, 16, 32 μM
Procedure: Namalwa cells are cultured in RPMI 1640, 10% fetal bovine serum, 1% PenStrep, and placed in a humidified atmosphere containing 5% CO2 at 37° C. 10,000-15,000 cells/well are seeded in 96 white wall well plates in 100 microliter medium/per well for 24 h. […] 100 microliters of Caspase-Glo 3/7 assay is added and luminescence is then read. Caki-1 cells are cultured in RPMI 1640, 10% fetal bovine serum, 1% PenStrep, and placed in a humidified atmosphere containing 5% CO2 at 37° C. 5,000 cells/well are seeded in 96 white wall well plates in 100 microliter medium/per well for 24 h. […] 100 microliters of Caspase-Glo 3/7 assay is added and luminescence is then read.

[20] = tested on: B-cell lymphoma cell lines Namalwa, Raji, CA46, Ramos, Daudi; assay: Growth and viability of B-cell Burkitt's lymphoma cell lines, MTT, 72 h; format: cell-based, human; settings: 72 h exposure; range over all BL cell lines tested
Procedure: as §2
(§3) Induction of apoptosis was assessed using a caspase 3/7 luminescent assay. Cleavage of apoptosis substrates and inhibition of c-myc was determined by western blotting, with images quantified by ImageJ after normalization with GAPDH. […] Formalin-fixed tumor and kidney sections were stained with hematoxylin and esosin and kidney sections scored using a semiquantitative scale designed to assess AKI-associated tubular injury (tubular epithelial cell loss, necrosis, tubular epithelial simplification, intratubular debris, and casts).

[21] = tested on: bcl-2; assay: bcl-2 western blot in BL cell lines; format: cell-based, human
[22] = tested on: Namalwa tumors; assay: Namalwa xenograft growth in mice; format: in vivo, mouse; settings: equimolar doses i.p. 3 times a week
[23] = tested on: mouse kidneys; assay: Kidney histopathology, AKI-associated tubular injury score, Namalwa-bearing mice; settings: i.p. 3 times a week for 4 weeks
Procedure: FIG. 27 depicts in accordance with various embodiments of the invention, formalin-fixed kidney sections are stained with hematoxylin and esosin and scored using a semiquantitative scale designed to assess AKI-associated tubular injury (tubular epithelial cell loss, necrosis, tubular epithelial simplification, intratubular debris, and casts).
as §3

[24] = tested on: c-myc; assay: c-myc western blot in BL cell lines; format: cell-based, human

Molecule: CC(=O)O[C@H]1CC[C@@]2(C)C(=CC[C@@H]3[C@@H]2CC[C@]2(C)C(c4cccnc4)=CC[C@@H]32)C1 [AA, abiraterone acetate]
sensitivity of cells grown as 3-D spheroids [1]: resistance with no signs of apoptosis | sensitivity of cells grown as 2D monolayers [2]: sensitive | IC50 ([3]; read-out: AA IC50, Naive C4-2B, 2D monolayer, NIR-SM 0 μM): 6.79 µM | IC50 ([3]; read-out: AA IC50, Naive C4-2B, 2D monolayer, NIR-SM 0.25 μM): 1.65 µM | IC50 ([4]; NIR-SM 0 μM): 13.3 µM | IC50 ([4]; NIR-SM 0.25 μM): 3.32 µM

Molecule: CC(=O)O[C@@]12CO[C@@H]1C[C@H](O)[C@@]1(C)C(=O)[C@H](O)C3=C(C)[C@@H](OC(=O)[C@H](O)[C@@H](NC(=O)OC(C)(C)C)c4ccccc4)C[C@@](O)([C@@H](OC(=O)c4ccccc4)[C@H]21)C3(C)C [DT, docetaxel]
effect on microtubules [5]: enhances microtubule polarization and inhibits shrinkage of microtubule length | sensitivity of cells grown as 3-D spheroids [1]: resistance with no signs of apoptosis | sensitivity of cells grown as 2D monolayers [2]: sensitive

Molecule: CNC(=O)c1ccc(N2C(=S)N(c3ccc(C#N)c(C(F)(F)F)c3)C(=O)C2(C)C)cc1F [EZ, enzalutamide]
sensitivity of cells grown as 3-D spheroids [1]: resistance with no signs of apoptosis | sensitivity of cells grown as 2D monolayers [2]: sensitive

Molecule: CC1(C)C(=CC=C2CCCC(C=CC3=[N+](CCCCS(=O)(=O)[O-])c4ccccc4C3(C)C)=C2Cl)N(CCCCS(=O)(=O)[O-])c2ccccc21.[Na+] [NIR-783]
cell inhibition effect [6]: does not exhibit significant cell inhibition effect

Molecule: CCC(C)(C)C(=O)O[C@H]1C[C@@H](C)C=C2C=C[C@H](C)[C@H](CC[C@@H]3C[C@@H](OC(=O)CCCCCN4/C(=C/C=C5\CCCC(/C=C/C6=[N+](CCCCS(=O)(=O)[O-])c7ccccc7C6(C)C)=C5Cl)C(C)(C)c5ccccc54)CC(=O)O3)[C@H]21 [NIR-SM, DZ-1-Simvastatin Conjugate]
accumulation in tumor [7]: selective accumulation | tumor targeting [8]: targets specifically PDAC tumors | potency relative to unconjugated simvastatin [9]: about 5 fold | synergized cisplatin cytotoxicity [9]: over 190 fold | synergy with enzalutamide (Enz) and abiraterone acetate (Abi) growth inhibition [10]: synergizes the growth inhibitory effects of anti-androgens | synergy with docetaxel growth inhibition ([10]; conjugate at 2 uM): synergizes the growth inhibitory effects of docetaxel | rate of apoptosis (caspase 3/7) [11]: significantly higher rate of apoptosis | accumulation in PC 3D spheroids higher than in PC 2D monolayer [12]: 5 fold | effectiveness relative to unconjugated simvastatin [13]: more effective than unconjugated simvastatin | sensitization of the cytotoxic effects of AA and EZ ([3]; NIR-SM 0.25 μM, both control and AA/EZ resistant PC cells in the C4-2B background): 4-5 fold | IC50 lower than SM [14]: about 4 fold | effectiveness relative to unconjugated simvastatin [14]: more effective than unconjugated simvastatin | sensitivity of cell growth relative to unconjugated drug [15]: more sensitive | effect on the growth of PC cells ([16]; 0.25 μM): marginal effects | IC50 [17]: 5 µM | enhancement of the cytotoxicity exerted by AA, EZ or DT [17]: 21-122 fold

IC50 ([16]; Homo sapiens, range over cell lines, dependent upon the cell types): 1 to 7 µM
Molecule: CCC(C)(C)C(=O)O[C@H]1C[C@@H](C)C=C2C=C[C@H](C)[C@H](CC[C@@H]3C[C@@H](O)CC(=O)O3)[C@H]21 [SM, Simvastatin, reference compound]
IC50 ([14]; ex vivo propagated CTCs): 20 µM

Molecule: N.N.[Cl][Pt][Cl] [cisplatin, reference compound]
IC50 [18]: > 64 µM | induction of apoptosis (caspase 3/7; caspase 9, caspase 3 and PARP) ([19]; listed as Cis): no sign of increased apoptotic activity | IC50 [20]: > 64 µM | bcl-2 expression [21]: no significant changes

Molecule: Nc1ccn([C@@H]2O[C@H](CO)[C@@H](O)C2(F)F)c(=O)n1 [gemcitabine]
sensitivity of cells grown as 2D monolayers [2]: sensitive

Molecule: DZ-1-cisplatin [NIR dye-cisplatin]
tumor growth inhibition [22]: tumor growth inhibition and apoptotic nuclear lobulation/fragmentation | kidney toxicity (histopathology) [23]: preserved the integrity and normal morphology of mouse kidneys | induction of apoptosis (caspase 3/7; caspase 9, caspase 3 and PARP) [19]: induces apoptosis | bcl-2 expression [21]: no significant changes | c-myc expression [24]: downregulates
